# Test results: patent publication US20110118236A1, “HETEROCYCLIC COMPOUND” (priority 2008, published 2011)
# Molecular target: T1, AMPA receptor (human GluR1 flip/stargazin expressed in CHO-K1 cells) (Homo sapiens, UniProt P42261)
# T1 construct: expressed in transfected cells; host or cells: CHO-K1
# Test: Assay of AMPA receptor potentiation by compounds, using calcium influx as an indicator
# Assay type: cell-based
# Conditions: compound 30 μM with glutamic acid final concentration 3 mM, 100% = glutamic acid 3 mM + 300 μM cyclothiazide, 0% = glutamic acid only, change over 3 minutes
# Text: (1) Construction of Expression Genes
# Human GluR1 flip cDNA was amplified by PGR using the forward primer ACTGAATTCGCC […] (SEQ ID: 1), and the reverse primer CCGCGGC […] (SEQ ID: 2), which had been artificially synthesized using human brain-derived cDNA (BD Bioscience) as template. The amplified product was digested with the restriction enzymes EcoRI and NotI. (Takara Shuzo Co., Ltd.), and was then incorporated at the same site of peDNA3.1(+) (Invitrogen) to construct; the pcDNA3.1(+)/human GluR1 flip gene. Human stargazin cDNA was amplified by PCR using the forward primer GGTC TCGAGOCCACCATGGOGCTGTTTGATCGAGGTGTTCA (SEQ ID: δ 3), and the reverse primer […] (SEQ ID: 4), which had been artificially synthesized using human hippocampal cDNA as template. The amplified product was digested with the restriction enzymes XhoI and BamHI (Takara Shuzo Co., Ltd.), and was then incorporated at the same site of pcDNA3.1(−) (Invitrogen) to construct the pcDN.A3.1. Zeo(−)/human stargazin gene.
# (2) Construction of Cells Expressing GluR1 Flip/Stargazin
# CHO-K1 cells passaged in culture media (Ham's F12 media (Invitrogen) supplemented with […] inactivated fetal bovine serum (Morgate), penicillin, and streptomycin (Invitrogen)) were separated using 0.05% trypsin diluted with D-PBS(−), and 0.53 mM EDTA (Invitrogen). The separated cells were suspended in culture media and harvested by centrifugation at 1,000 rpm. The harvested cells were re-suspended in D-PBS(−) and introduced into a 0.4 cm electroporation cuvette (BioRad). The pcDNA3.1(+)/human GluR1 flip gene (5 μg) and pcDNA3.1 Zeo(−)/human stargazin gene (15 μg) were added, and were introduced into the CHO-K1 cells using a Gene Pulser II (BioRad) at 950 μFd and […]. The cells were incubated overnight in culture media, and on the next day 96-well plates were seeded with 250 cells/well using selection media (Zeocin (Invitrogen) in a concentration of 250 μg/mL in culture media). Drug resistant clones were selected, and clones expressing GluR1 flip/stargazin were selected by the following assay using calcium influx as an indicator.
# (3) Assay of AMPA receptor potentiation by compounds, using calcium influx as an indicator 96-well black-bottomed clear plates (Costar) were seeded with the CHO-K1/GluR1 flip/stargazin expressing cells (2×10^4 cells/well), and were incubated for 2 days at 37° C. in a CO2 incubator (Sanyo). The cell plate media was removed, and assay buffer A (D-MEM (Invitrogen), 0.1% BSA (Serological Protein, Inc.), and 20 mM HEPES (invitrogen)) was added to a concentration of 50 μL/well. A calcium indicator (Calcium Kit B-Fluo4 for TKB, Dojindo Laboratories) containing 2.5 mM probenecid (Dojindo Laboratories) was added to a concentration of 50 μL/well, and the plates were allowed to stand for 1 hour at 37° C. in a CO2 incubator. The cell plates were set up on a CellLux (PerkinElmer), a 50 pt mixture of 9 mM glutamic acid diluted (final concentration 3 mM) with assay buffer B (HBSS (Invitrogen), 0.1% BSA, and 20 mM HEPES) and the compound to be tested (concentration of compound to be detected: 30 μM) was added, and the change in the level of fluorescence over a period of 3 minutes was determined. The compound activity was calculated using the following equation, wherein the change in fluorescence in wells containing glutamic acid (final concentration 3 mM) and 300 μM cyclothiazide (TOCRIS) was defined as 100%, and the change in fluorescence in wells containing only glutamic acid (final concentration 3 mm) was defined as 0%.
# Activity (%)=(X−C)/(T−C)×1.00
# T: change in fluorescence in wells containing glutamic acid (final concentration 3 mM) and 300 μM cyclothiazide C: change in fluorescence in wells containing only glutamic acid (final concentration 3 mM) X: change in fluorescence in wells containing compound to be detected
# T1 sequence (P42261 19-906 isoform P42261-2 limits assumed): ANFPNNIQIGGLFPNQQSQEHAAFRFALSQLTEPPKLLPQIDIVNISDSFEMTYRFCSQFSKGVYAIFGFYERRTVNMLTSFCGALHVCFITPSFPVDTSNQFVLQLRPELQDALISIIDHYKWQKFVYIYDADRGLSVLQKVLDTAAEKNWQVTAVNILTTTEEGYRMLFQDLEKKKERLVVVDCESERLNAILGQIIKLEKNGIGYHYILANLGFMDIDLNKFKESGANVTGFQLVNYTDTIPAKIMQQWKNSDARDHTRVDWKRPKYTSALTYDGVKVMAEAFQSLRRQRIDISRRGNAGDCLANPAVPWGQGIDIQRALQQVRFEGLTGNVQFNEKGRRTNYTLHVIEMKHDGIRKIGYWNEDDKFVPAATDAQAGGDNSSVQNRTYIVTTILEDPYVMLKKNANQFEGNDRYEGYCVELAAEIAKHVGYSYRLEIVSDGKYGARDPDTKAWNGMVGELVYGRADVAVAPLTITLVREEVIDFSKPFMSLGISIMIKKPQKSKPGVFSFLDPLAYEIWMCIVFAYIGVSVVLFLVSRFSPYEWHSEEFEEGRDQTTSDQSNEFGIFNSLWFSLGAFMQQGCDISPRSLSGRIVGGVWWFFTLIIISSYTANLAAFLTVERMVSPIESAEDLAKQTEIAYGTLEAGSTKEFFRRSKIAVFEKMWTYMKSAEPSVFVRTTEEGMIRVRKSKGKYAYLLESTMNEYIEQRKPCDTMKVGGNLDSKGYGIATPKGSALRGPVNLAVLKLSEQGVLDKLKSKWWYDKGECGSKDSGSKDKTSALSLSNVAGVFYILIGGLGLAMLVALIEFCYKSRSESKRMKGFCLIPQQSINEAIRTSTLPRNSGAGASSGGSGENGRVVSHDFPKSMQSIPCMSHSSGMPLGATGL
# T1 sequence (Q9Y698 whole entry partner): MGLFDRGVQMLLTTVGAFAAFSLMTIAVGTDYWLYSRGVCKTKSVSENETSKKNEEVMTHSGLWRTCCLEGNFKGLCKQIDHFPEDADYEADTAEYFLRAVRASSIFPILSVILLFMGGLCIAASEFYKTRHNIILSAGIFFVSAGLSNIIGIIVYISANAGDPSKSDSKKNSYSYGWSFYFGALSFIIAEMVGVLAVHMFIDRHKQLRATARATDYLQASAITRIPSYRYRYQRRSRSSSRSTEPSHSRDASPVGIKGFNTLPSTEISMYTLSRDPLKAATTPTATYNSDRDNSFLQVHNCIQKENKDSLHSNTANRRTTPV
row,Structure (SMILES),"Activity (%) of AMPA receptor potentiation (change in fluorescence, calcium influx) [%]"
1,"COc1ccc(Cl)cc1NC(=O)Cn1nc(C(F)(F)F)c2c1CCN(C(C)=O)C2 [Example 226, 2-[5-Acetyl-3-(trifluoromethyl)-4,5,6,7-tetrahydro-1H-pyrazolo[4,3-c]pyridin-1-yl]-N-(5-chloro-2-methoxyphenyl)acetamide]",74
2,"NC(=O)c1c(NC(=O)Cn2nc(C(F)(F)F)c3c2CCNC3)sc2c1CCCC2 [Example 190, 2-({[3-(Trifluoromethyl)-4,5,6,7-tetrahydro-1H-pyrazolo[4,3-c]pyridin-1-yl]acetyl}amino)-4,5,6,7-tetrahydro-1-benzothiophene-3-carboxamide]",70
3,"Cc1cc(C)n2ncc(-c3noc(Cn4nc(C(F)(F)F)c5c4CCCC5)n3)c2n1 [Example 276, 5,7-Dimethyl-3-(5-{[3-(trifluoromethyl)-4,5,6,7-tetrahydro-1H-indazol-1-yl]methyl}-1,2,4-oxadiazol-3-yl)pyrazolo[1,5-a]pyrimidine]",79
4,"NC(=O)c1c(NC(=O)Cn2nc(C(F)(F)F)c3c2CNCC3)sc2c1CCCC2 [Example 185, 2-({[3-(Trifluoromethyl)-4,5,6,7-tetrahydro-1H-pyrazolo[3,4-c]pyridin-1-yl]acetyl}amino)-4,5,6,7-tetrahydro-1-benzothiophene-3-carboxamide]",88
5,"O=C(c1csc(Cn2nc(C(F)(F)F)c3c2CCCC3)n1)N1CCCC1 [Example 145, 1-{[4-(Pyrrolidin-1-ylcarbonyl)-1,3-thiazol-2-yl]methyl}-3-(trifluoromethyl)-4,5,6,7-tetrahydro-1-H-indazole]",85
6,"CNC(=O)N1CCc2c(c(C(F)(F)F)nn2CC(=O)Nc2cc(Cl)ccc2OC)C1 [Example 229, 1-{2-[(5-Chloro-2-methoxyphenyl)amino]-2-oxoethyl}-N-methyl-3-(trifluoromethyl)-1,4,6,7-tetrahydro-5H-pyrazolo[4,3-c]pyridine-5-carboxamide]",78
7,"FC(F)(F)c1nn(Cc2nnc(-c3cccs3)o2)c2c1CCCC2 [Example 272, 1-[(5-Thiophen-2-yl-1,3,4-oxadiazol-2-yl)methyl]-3-(trifluoromethyl)-4,5,6,7-tetrahydro-1H-indazole]",86
8,"FC(F)(F)c1nn(Cc2nc(-c3cccs3)no2)c2c1COCC2 [Example 279, 1-[(3-Thiophen-2-yl-1,2,4-oxadiazol-5-yl)-methyl]-3-(trifluoromethyl)-1,4,6,7-tetrahydropyrano[4,3-c]pyrazole]",62
9,"COc1ccc(Cl)cc1NC(=O)Cn1nc(C(F)(F)F)c2c1CNCC2 [Example 196, N-(5-Chloro-2-methoxyphenyl)-2-[3-(trifluoromethyl)-4,5,6,7-tetrahydro-1H-pyrazolo[3,4-c]pyridin-1-yl]acetamide]",80
10,Cc1cc(C(F)(F)F)n2ncc(-c3noc(Cn4nc(C(F)(F)F)c5c4CCC5)n3)c2n1 [Example 278],82
11,"CSc1sc(C(=O)NCCn2nc(C(F)(F)F)c3c2CCCC3)c2nc(C)n(C)c12 [Example 280, 1,2-Dimethyl-6-(methylsulfanyl)-N-{2-[3-(trifluoromethyl)-4,5,6,7-tetrahydro-1H-indazol-1-yl]ethyl}-1H-thieno[3,4-d]imidazole-4-carboxamide]",86
12,"CSc1sc(C(=O)NCCn2nc(C(F)(F)F)c3c2CCCC3)c2c1C(O)CCC2 (centres unmarked) [Example 287, 4-Hydroxy-3-(methylsulfanyl)-N-{2-[3-(trifluoromethyl)-4,5,6,7-tetrahydro-1H-indazol-1-yl]ethyl}-4,5,6,7-tetrahydro-2-benzothiophene-1-carboxamide]",68
13,"FC(F)(F)c1nn(Cc2nc(-c3cnccn3)no2)c2c1CCCC2 [Example 277, 1-[(3-Pyrazin-2-yl-1,2,4-oxadiazol-5-yl)methyl]-3-(trifluoromethyl)-4,5,6,7-tetrahydro-1H-indazole]",75
14,"Cc1cc(C(F)(F)F)n2ncc(-c3noc(Cn4nc(C(F)(F)F)c5c4CCCC5)n3)c2n1 [Example 283, 5-Methyl-7-(trifluoromethyl)-3-(5-{[3-(trifluoromethyl)-4,5,6,7-tetrahydro-1H-indazol-1-yl]methyl}-1,2,4-oxadiazol-3-yl)pyrazolo[1,5-a]pyrimidine]",76
